Values after ≈ are worked out from the molar mass of the structure shown.
Assays:
[1] = test system: T. cruzi epimastigotes; parameters: method as in number not given; details: literature data; ref number not given; cited from earlier work
[2] = test system: trypomastigote forms of T. cruzi; parameters: method as in number not given; details: previous studies; ref number not given; cited from earlier work
[3] = test system: amastigote forms of L. (L.) infantum; parameters: method as in number not given; details: previous studies; ref number not given; cited from earlier work
[4] = test system: trypomastigote forms of T. cruzi (strain Y); assay: In vitro EC50 against trypomastigote forms of T. cruzi (resazurin viability); type: cell-based; details: Trypanosoma cruzi; trypomastigotes, 24 h; read-out: T. cruzi EC50 TRYPO
Method: Trypomastigote forms (strain Y) of T. cruzi were obtained from Swiss mice (Mus musculus) previously infected intraperitoneally. The trypomastigote forms were used to infect LLC-MK2 cell cultures consisting of Macaca mulatta kidney epithelial cells (ATCC CCL 7) grown in RPMI-1640 medium containing 2% fetal bovine serum (FBS). The infected cell cultures were maintained in an incubator at 37 °C with 5% CO2, as previously described. , To evaluate the 50% effective concentration (EC50) against the trypomastigote forms of T. cruzi, mixture 1–10 was serially solubilized in the RPMI-1640 culture medium in 96-well plates. Subsequently, the trypomastigote forms of T. cruzi were added, at a concentration of 1 × 10^6 trypomastigotes per well. After an incubation period of 24 h at 37 °C with 5% CO2, to determine the viability of trypomastigotes, 20 μL of 10% Alamar Blue (resazurin) was added, followed by a new incubation of the plates for 20 h under the same conditions. At the end of the tests, the plates were read by absorption using a microplate spectrophotometer (Filter Max F5 Multi-Mode Microplate Reader) at 570 nm, as previously described. Benznidazole was used as a positive control, while cells not subjected to treatment were used as a negative control.

[5] = test system: amastigote forms of T. cruzi; assay: In vitro EC50 against intracellular amastigote forms of T. cruzi in peritoneal macrophages (Giemsa, infection index); type: cell-based; details: Trypanosoma cruzi, Peritoneal macrophage; intracellular amastigotes, 48 h; read-out: T. cruzi EC50 AMA
Method: After collecting and counting the cells, they were seeded in Nunc brand 16-well plates and incubated for 18 h at 37 °C in an incubator containing 5% CO2. Nonadherent cells were then removed by washing with RPMI-1640 medium. Subsequently, the cells were infected with trypomastigotes at a ratio of 10:1 per well during an incubation period of 4 h. The mixture of compounds, previously diluted in series, was added and incubated for 48 h to determine the EC50 against amastigotes. After the incubation phase, the glass slides were fixed using MeOH for 5 min and then stained with Giemsa for 7 min. This procedure allowed for observation under a light microscope. The infection index was obtained in 200 macrophages/slide according to the formula: infected macrophages × number of amastigotes/total number of macrophages. Benznidazole was used as a standard drug. ,

[6] = Cytotoxicity against mammalian cells (MTT); type: cell-based; details: mouse, NCTC clone 929 fibroblasts, NCTC clone 929 murine fibroblasts
Method: The cytotoxicity of the mixture of 1–10 was examined in cells of the NCTC lineage (clone 929) at a density of 6 × 10^4 cells per well. The cells were cultivated in 96-well plates containing different concentrations of the mixture, serially diluted using RPMI 1640 medium supplemented with 10% fetal bovine serum (FBS). Incubation took place over 48 h, in an incubator maintained at 37 °C with 5% CO2. The cell viability of NCTC cells (clone 929) was subsequently evaluated using the MTT colorimetric assay.

[7] = test system: mammalian cells; parameters: method as in number not given; details: literature data; ref number not given; cited from earlier work
[8] = test system: T. cruzi; parameters: method as in number not given; details: literature data; ref number not given; cited from earlier work

CCCCCCCCC#CCCCCCCCC(=O)O [9-octadecinoic acid]
inhibition of growth of T. cruzi epimastigotes [1]: inhibitory capacity
activity against trypomastigote forms of T. cruzi [2]: effective results

C=CCCCCCCC#CCCCCCCCCCCCC(=O)O [Compound 2, docos-21-en-13-inoic acid]
in vitro activity against amastigote forms of L. (L.) infantum [3]: in vitro activity

O=C(Cn1ccnc1[N+](=O)[O-])NCc1ccccc1 [benznidazole]
EC50 [4]: 3.9 ± 1.2 µg/mL (≈ 15 µM)
EC50 [5]: 0.9 ± 0.2 µg/mL (≈ 3.46 µM)
CC50 at 48 h [6]: > 200 µg/mL

CCCC#CC#CCCCCCCCCCCC(=O)O [macrocarpathic acid, 12,14-octadecadiinoic acid]
cytotoxic effect on mammalian cells [7]: cytotoxic effect

CCCCCCCCCCCCCCCCCC(=O)O [stearic acid]
activity against T. cruzi [8]: inactivity
